Consider one compound from patent publication US11168052B2, “Carbamate derivative compounds, processes for preparing them and their uses” (BIO-PHARM SOLUTIONS CO., LTD., priority 2016, dated 2021).

In experiment [1] the test system is PTZ (Pentylenetetrazol)-induced clonic seizure in mice. Nature of the experiment: Anti-epilepsy activity, scPTZ test in mouse. The format is in vivo, ICR mice. Conditions: ip. From the text:
In this experiment, each test compound sample was formulated as described in Biological Experimental Example 1, and administered intraperitoneally to the test animals (mice; ICR or Rat; SD); Experimental animals, male ICR mice and male SD rats, were purchased from OrientBio or Nara biotech, Korea, and housed 4-5 mice per a cage for 4-5 days. The range of mice body weight was used between 19 and 26 grams and range of rats body weight was used between 100 and 130 grams. After Peak time (0.5, 1, 2 and 4 hr) from the administration, PTZ (Pentylenetetrazol) was administered subcutaneously in the concentration capable of inducing 97% intermittent convulsions (mice: 100-110 mg/kg?bw, 10 μl/g, or rats: 90-110 mg/kg?bw, 2 μl/g). If clonic seizure was not observed for at least 30 minutes in the PTZ administered animal, it can be considered that the test compound has anti-epilepsy activity. The median effective dose (ED50) is determined using 6 animals per a concentration (total three different concentrations), and calculated by Litchfield and Wicoxon log-probit method which is a dose-response relationship.

Experiment [2] has as its system Post operation-induced pain model in rats. Nature of the experiment: Antiallodynic activity on post operative-induced pain model (PO), von Frey test. Conditions: dose 200 mg/kg, von Frey paw withdrawal threshold relative to sham. The format is in vivo, Sprague-Dawley rats. From the text: Male Sprague-Dawley rats (Orient Bio, Korea, 230-250g) were habituated at least 3 days before surgery, and were allowed free access to food and water throughout the experimentation. Room temperature and humidity were maintained at 24±2 and 50±10%, respectively. The process of performing the post-operation model's surgery was adapted from Brennan et al (1996). At first, rats with allodynia (threshold valueless than 8 g) were excluded in Pre-von Frey Test. During the post-operation surgery, rats were anesthetized under gaseous anesthesia with 2% isoflurane. The rat was placed, lying face down, on 37 degree warm plate to prevent against hypothermia. The ipsilateral plantar aspect (left side) of the hind paw was prepared in a sterile manner with a 10% povidone-iodine solution. […]
For efficacy measure, the threshold value of group C was assigned 100% efficacy, and the percentage of the threshold values of group A compared to group C (for each different dose level) were calculated as the efficacies. Base on these efficacy values, ED50 was calculated using log fitting. […]
For pain threshold test, all animals were placed in a stainless steel meshed chamber and habituated for 30 min in the test cage. The tactile sensitivity of the ipsilateral hind paw was measured using the up-and-down method (Dixon, 1980) with seven von Frey monofilaments (0.4, 1, 2, 4, 6, 8, and 15 g) using 3 trials. […]

As a reminder, the ED50 is the dose at which the effect has come halfway, by size or by number of responders. The low end stands for greater potency, the high end for weaker potency. `NC(=O)O[C@@H]1CCc2cccc(Cl)c2[C@@H]1O` [Example 1, (1S, 2R)-8-chloro-1-hydroxy-1,2,3,4-tetrahydronaphthalen-2-yl carbamate] returned an ED50 in experiment [1] of 12.5 mg/kg. Moreover, in experiment [2], the “Post Operation Efficacy (% of sham threshold)” value is 200 (29.8%).
